Laboratory results reported in ChEMBL document CHEMBL3885881, “DrugMatrix”.

Species: Rattus norvegicus
Assay: DrugMatrix - Regimen: Daily Repeat
Type: toxicity, organism-based, Sprague-Dawley
Design: regimen Daily Repeat, gender Male, age 6-8 weeks
Conditions: in vivo, po, route oral GAVAGE, vehicle 100 % WATER; for ABSOLUTE BASOPHIL / ABSOLUTE EOSINOPHIL / ABSOLUTE LYMPHOCYTE / ABSOLUTE MONOCYTE / ABSOLUTE SEGMENTED NEUTROPHIL / BASOPHIL / EOSINOPHIL / ERYTHROCYTE COUNT / HEMATOCRIT / HEMOGLOBIN / LEUKOCYTE COUNT / LYMPHOCYTE / MEAN CORPUSCULAR HEMOGLOBIN / MEAN CORPUSCULAR HEMOGLOBIN CONCENTRATION / MEAN CORPUSCULAR VOLUME / MONOCYTE / NEUTROPHIL / NUCLEATED RED BLOOD CELLS / PLATELET COUNT: tissue Blood; for ALANINE AMINOTRANSFERASE / ALBUMIN / ALKALINE PHOSPHATASE / ASPARTATE AMINOTRANSFERASE / BLOOD UREA NITROGEN / CARBON DIOXIDE / CHLORIDE / CHOLESTEROL / CREATINE PHOSPHOKINASE / CREATININE / GLUCOSE / LACTATE DEHYDROGENASE / LIPASE / PHOSPHORUS / POTASSIUM / SODIUM / TOTAL BILIRUBIN / TOTAL PROTEIN / URIC ACID: tissue Plasma
[1] = 0 mg/kg, 72 h, dose level Control, time 3 day
[2] = 0 mg/kg, 120 h, dose level Control, time 5 day
[3] = 20 mg/kg, 72 h, dose level Low, time 3 day

CCCC(C)C1(CC)C(=O)NC(=O)NC1=O (centres undefined) [PENTOBARBITAL]
ABSOLUTE BASOPHIL [1]: 0 CELLS/uL
ABSOLUTE EOSINOPHIL [1]: 32.5 CELLS/uL
ABSOLUTE LYMPHOCYTE [1]: 9305.83 CELLS/uL
ABSOLUTE MONOCYTE [1]: 43.83 CELLS/uL
ABSOLUTE SEGMENTED NEUTROPHIL [1]: 817.83 CELLS/uL
BASOPHIL [1]: 0%
EOSINOPHIL [1]: 0.33%
ERYTHROCYTE COUNT [1]: 5.38 x10E6/uL
HEMATOCRIT [1]: 33.63%
HEMOGLOBIN [1]: 13.17 G/DL
LEUKOCYTE COUNT [1]: 10.2 x10E3/uL
LYMPHOCYTE [1]: 91.17%
MEAN CORPUSCULAR HEMOGLOBIN [1]: 24.5 pg
MEAN CORPUSCULAR HEMOGLOBIN CONCENTRATION [1]: 39.13 G/DL
MEAN CORPUSCULAR VOLUME [1]: 62.53 fL
MONOCYTE [1]: 0.5%
NEUTROPHIL [1]: 8%
NUCLEATED RED BLOOD CELLS [1]: 0.17 /100WBC
PLATELET COUNT [1]: 858 x10E3/uL
ALANINE AMINOTRANSFERASE [1]: 55.67 u/L
ALBUMIN [1]: 4.07 G/DL
ALKALINE PHOSPHATASE [1]: 337 u/L
ASPARTATE AMINOTRANSFERASE [1]: 84 u/L
BLOOD UREA NITROGEN [1]: 13.17 mg/dL
CARBON DIOXIDE [1]: 34.17 mmol/L
CHLORIDE [1]: 99.33 MEQ/L
CHOLESTEROL [1]: 78.83 mg/dL
CREATINE PHOSPHOKINASE [1]: 576.83 u/L
CREATININE [1]: 0.17 mg/dL
GLUCOSE [1]: 152.67 mg/dL
LACTATE DEHYDROGENASE [1]: 147.83 u/L
LIPASE [1]: 9.5 u/L
PHOSPHORUS [1]: 10.78 mg/dL
POTASSIUM [1]: 6.34 MEQ/L
SODIUM [1]: 144.12 MEQ/L
TOTAL BILIRUBIN [1]: 0.18 mg/dL
TOTAL PROTEIN [1]: 6.08 G/DL
URIC ACID [1]: 0.65 mg/dL
ABSOLUTE BASOPHIL [2]: 0 CELLS/uL
ABSOLUTE EOSINOPHIL [2]: 31.17 CELLS/uL
ABSOLUTE LYMPHOCYTE [2]: 7918.33 CELLS/uL
ABSOLUTE MONOCYTE [2]: 58.33 CELLS/uL
ABSOLUTE SEGMENTED NEUTROPHIL [2]: 725.5 CELLS/uL
BASOPHIL [2]: 0%
EOSINOPHIL [2]: 0.33%
ERYTHROCYTE COUNT [2]: 5.32 x10E6/uL
HEMATOCRIT [2]: 33.53%
HEMOGLOBIN [2]: 13.17 G/DL
LEUKOCYTE COUNT [2]: 8.73 x10E3/uL
LYMPHOCYTE [2]: 90.33%
MEAN CORPUSCULAR HEMOGLOBIN [2]: 24.82 pg
MEAN CORPUSCULAR HEMOGLOBIN CONCENTRATION [2]: 39.33 G/DL
MEAN CORPUSCULAR VOLUME [2]: 63.12 fL
MONOCYTE [2]: 0.67%
NEUTROPHIL [2]: 8.67%
NUCLEATED RED BLOOD CELLS [2]: 0 /100WBC
PLATELET COUNT [2]: 1144.83 x10E3/uL
ALANINE AMINOTRANSFERASE [2]: 60.5 u/L
ALBUMIN [2]: 3.97 G/DL
ALKALINE PHOSPHATASE [2]: 343.17 u/L
ASPARTATE AMINOTRANSFERASE [2]: 80.83 u/L
BLOOD UREA NITROGEN [2]: 15 mg/dL
CARBON DIOXIDE [2]: 31 mmol/L
CHLORIDE [2]: 99.75 MEQ/L
CHOLESTEROL [2]: 71.5 mg/dL
CREATINE PHOSPHOKINASE [2]: 237.17 u/L
CREATININE [2]: 0.17 mg/dL
GLUCOSE [2]: 137 mg/dL
LACTATE DEHYDROGENASE [2]: 146.17 u/L
LIPASE [2]: 11.5 u/L
PHOSPHORUS [2]: 10.13 mg/dL
POTASSIUM [2]: 6 MEQ/L
SODIUM [2]: 145 MEQ/L
TOTAL BILIRUBIN [2]: 0.13 mg/dL
TOTAL PROTEIN [2]: 5.82 G/DL
URIC ACID [2]: 0.62 mg/dL
ABSOLUTE BASOPHIL [3]: 0 CELLS/uL
ABSOLUTE EOSINOPHIL [3]: 0 CELLS/uL
ABSOLUTE LYMPHOCYTE [3]: 9302.33 CELLS/uL
ABSOLUTE MONOCYTE [3]: 108 CELLS/uL
ABSOLUTE SEGMENTED NEUTROPHIL [3]: 989.67 CELLS/uL
BASOPHIL [3]: 0%
EOSINOPHIL [3]: 0%
ERYTHROCYTE COUNT [3]: 5.3 x10E6/uL
HEMATOCRIT [3]: 32.83%
HEMOGLOBIN [3]: 12.6 G/DL
LEUKOCYTE COUNT [3]: 10.4 x10E3/uL
LYMPHOCYTE [3]: 88.33%
MEAN CORPUSCULAR HEMOGLOBIN [3]: 23.77 pg
MEAN CORPUSCULAR HEMOGLOBIN CONCENTRATION [3]: 38.37 G/DL
MEAN CORPUSCULAR VOLUME [3]: 61.97 fL
MONOCYTE [3]: 1.33%
NEUTROPHIL [3]: 10.33%
NUCLEATED RED BLOOD CELLS [3]: 0 /100WBC
PLATELET COUNT [3]: 1066.67 x10E3/uL
ALANINE AMINOTRANSFERASE [3]: 57.67 u/L
ALBUMIN [3]: 3.9 G/DL
ALKALINE PHOSPHATASE [3]: 334.33 u/L
ASPARTATE AMINOTRANSFERASE [3]: 90.67 u/L
BLOOD UREA NITROGEN [3]: 13.67 mg/dL
CARBON DIOXIDE [3]: 35.33 mmol/L
CHLORIDE [3]: 100 MEQ/L
CHOLESTEROL [3]: 80.67 mg/dL
CREATINE PHOSPHOKINASE [3]: 384.67 u/L
CREATININE [3]: 0.14 mg/dL
GLUCOSE [3]: 140 mg/dL
LACTATE DEHYDROGENASE [3]: 137 u/L
LIPASE [3]: 9 u/L
PHOSPHORUS [3]: 11.23 mg/dL
POTASSIUM [3]: 5.89 MEQ/L
SODIUM [3]: 147.3 MEQ/L
TOTAL BILIRUBIN [3]: 0.13 mg/dL
TOTAL PROTEIN [3]: 5.67 G/DL
URIC ACID [3]: 0.7 mg/dL
